Measurements from PubChem BioAssay (NCI).
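Results reflect a 48-hour exposure of cells in 96-well plates to compound at five concentrations. TGI is the concentration that stops growth completely.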

Tests used:
Assay in all cases: NCI-60 cell line screen, 48 h
786-0 renal = test system: 786-0 renal
A549 NSCLC = test system: A549 NSCLC
ACHN renal = test system: ACHN renal
BT-549 breast = test system: BT-549 breast
CAKI-1 renal = test system: CAKI-1 renal
CCRF-CEM leukemia = test system: CCRF-CEM leukemia
COLO 205 colon = test system: COLO 205 colon
DU-145 prostate = test system: DU-145 prostate
EKVX NSCLC = test system: EKVX NSCLC
HCC-2998 colon = test system: HCC-2998 colon
HCT-116 colon = test system: HCT-116 colon
HCT-15 colon = test system: HCT-15 colon
HOP-62 NSCLC = test system: HOP-62 NSCLC
HS 578T breast = test system: HS 578T breast
HT29 colon = test system: HT29 colon
IGROV1 ovarian = test system: IGROV1 ovarian
K-562 leukemia = test system: K-562 leukemia
KM12 colon = test system: KM12 colon
MALME-3M melanoma = test system: MALME-3M melanoma
MDA-MB-231 breast = test system: MDA-MB-231 breast
MOLT-4 leukemia = test system: MOLT-4 leukemia
NCI-H226 lung = test system: NCI-H226 lung
NCI-H23 lung = test system: NCI-H23 lung
NCI-H460 lung = test system: NCI-H460 lung
NCI-H522 lung = test system: NCI-H522 lung
NCI/ADR-RES ovarian = test system: NCI/ADR-RES ovarian
OVCAR-3 ovarian = test system: OVCAR-3 ovarian
OVCAR-5 ovarian = test system: OVCAR-5 ovarian
OVCAR-8 ovarian = test system: OVCAR-8 ovarian
RXF 393 renal = test system: RXF 393 renal
SF-268 CNS = test system: SF-268 CNS
SF-539 CNS = test system: SF-539 CNS
SK-MEL-28 melanoma = test system: SK-MEL-28 melanoma
SK-MEL-5 melanoma = test system: SK-MEL-5 melanoma
SNB-75 CNS = test system: SNB-75 CNS
SW-620 colon = test system: SW-620 colon
T-47D breast = test system: T-47D breast
UACC-62 melanoma = test system: UACC-62 melanoma
UO-31 renal = test system: UO-31 renal
A498 renal = test system: A498 renal
HOP-92 NSCLC = test system: HOP-92 NSCLC
LOX IMVI melanoma = test system: LOX IMVI melanoma
M14 melanoma = test system: M14 melanoma
MDA-MB-435 = test system: MDA-MB-435
OVCAR-4 ovarian = test system: OVCAR-4 ovarian
PC-3 prostate = test system: PC-3 prostate
RPMI-8226 leukemia = test system: RPMI-8226 leukemia
SF-295 CNS = test system: SF-295 CNS
SK-MEL-2 melanoma = test system: SK-MEL-2 melanoma
SK-OV-3 ovarian = test system: SK-OV-3 ovarian
SNB-19 CNS = test system: SNB-19 CNS
TK-10 renal = test system: TK-10 renal
U251 CNS = test system: U251 CNS
UACC-257 melanoma = test system: UACC-257 melanoma

## CC(C)(C)c1ccc(O)c(C(O)c2cccnc2)c1 (stereo unspecified)
786-0 renal
  TGI: > 100 µM
A549 NSCLC
  TGI: > 100 µM
ACHN renal
  TGI: > 100 µM
BT-549 breast
  TGI: > 100 µM
CAKI-1 renal
  TGI: > 100 µM
CCRF-CEM leukemia
  TGI: > 100 µM
COLO 205 colon
  TGI: > 100 µM
DU-145 prostate
  TGI: > 100 µM
EKVX NSCLC
  TGI: > 100 µM
HCC-2998 colon
  TGI: > 100 µM
HCT-116 colon
  TGI: > 100 µM
HCT-15 colon
  TGI: > 100 µM
HOP-62 NSCLC
  TGI: > 100 µM
HS 578T breast
  TGI: > 100 µM
HT29 colon
  TGI: > 100 µM
IGROV1 ovarian
  TGI: > 100 µM
K-562 leukemia
  TGI: > 100 µM
KM12 colon
  TGI: > 100 µM
MALME-3M melanoma
  TGI: > 100 µM
MDA-MB-231 breast
  TGI: > 100 µM
MOLT-4 leukemia
  TGI: > 100 µM
NCI-H226 lung
  TGI: > 100 µM
NCI-H23 lung
  TGI: > 100 µM
NCI-H460 lung
  TGI: > 100 µM
NCI-H522 lung
  TGI: > 100 µM
NCI/ADR-RES ovarian
  TGI: > 100 µM
OVCAR-3 ovarian
  TGI: > 100 µM
OVCAR-5 ovarian
  TGI: > 100 µM
OVCAR-8 ovarian
  TGI: > 100 µM
RXF 393 renal
  TGI: > 100 µM
SF-268 CNS
  TGI: > 100 µM
SF-539 CNS
  TGI: > 100 µM
SK-MEL-28 melanoma
  TGI: > 100 µM
SK-MEL-5 melanoma
  TGI: > 100 µM
SNB-75 CNS
  TGI: > 100 µM
SW-620 colon
  TGI: > 100 µM
T-47D breast
  TGI: 53.7 µM
UACC-62 melanoma
  TGI: > 100 µM
UO-31 renal
  TGI: > 100 µM

## COC(=O)C(N)CCCC(N)C(=O)NC(C)C(=O)NC(CCC(=O)NCCCNc1ccc([N+](=O)[O-])c2[nH]c3ccccc3c(=O)c12)C(N)=O (stereo unspecified)
786-0 renal
  TGI: 16.6 µM
A498 renal
  TGI: 30.7 µM
A549 NSCLC
  TGI: 12.3 µM
ACHN renal
  TGI: 16.2 µM
BT-549 breast
  TGI: 25.7 µM
CAKI-1 renal
  TGI: 19.8 µM
CCRF-CEM leukemia
  TGI: 14.3 µM
COLO 205 colon
  TGI: 15.2 µM
DU-145 prostate
  TGI: 19.1 µM
EKVX NSCLC
  TGI: 20.2 µM
HCC-2998 colon
  TGI: 21.8 µM
HCT-116 colon
  TGI: 12.4 µM
HCT-15 colon
  TGI: 15 µM
HOP-62 NSCLC
  TGI: 22.4 µM
HOP-92 NSCLC
  TGI: 26.1 µM
K-562 leukemia
  TGI: 22.6 µM
KM12 colon
  TGI: 19.1 µM
LOX IMVI melanoma
  TGI: 13 µM
M14 melanoma
  TGI: 17.9 µM
MDA-MB-231 breast
  TGI: 28.8 µM
MDA-MB-435
  TGI: 17.6 µM
NCI-H226 lung
  TGI: 27.9 µM
NCI-H23 lung
  TGI: 17.9 µM
NCI-H460 lung
  TGI: 17.2 µM
NCI/ADR-RES ovarian
  TGI: 25 µM
OVCAR-3 ovarian
  TGI: 24.9 µM
OVCAR-4 ovarian
  TGI: 20.2 µM
OVCAR-5 ovarian
  TGI: 22.7 µM
OVCAR-8 ovarian
  TGI: 13.9 µM
PC-3 prostate
  TGI: 19.8 µM
RPMI-8226 leukemia
  TGI: 14 µM
RXF 393 renal
  TGI: 25.1 µM
SF-268 CNS
  TGI: 13.8 µM
SF-295 CNS
  TGI: 20.9 µM
SK-MEL-2 melanoma
  TGI: 46.2 µM
SK-MEL-28 melanoma
  TGI: 22 µM
SK-MEL-5 melanoma
  TGI: 23.9 µM
SK-OV-3 ovarian
  TGI: 26.7 µM
SNB-19 CNS
  TGI: 15 µM
SNB-75 CNS
  TGI: 21.6 µM
SW-620 colon
  TGI: 14.7 µM
T-47D breast
  TGI: 33.9 µM
TK-10 renal
  TGI: 23.2 µM
U251 CNS
  TGI: 18.4 µM
UACC-257 melanoma
  TGI: 23.2 µM
UACC-62 melanoma
  TGI: 10.8 µM
UO-31 renal
  TGI: 13.8 µM
